From ChEMBL document CHEMBL1158004, “New alkaloids from the indopacific sponge Stylissa carteri” (J Nat Prod, 1999)
Values after ≈ are worked out from the molar mass of the structure shown.

Assay: Cytotoxicity against human MONO-MAC 6 cells assessed as [3H]thymidine incorporation after 48 hrs
Type: functional, cell-based

SMILES | IC50
NC1=N/C(=C2/CCNC(=O)c3[nH]ccc32)C(=O)N1 [DEBROMOHYMENIALDISINE] | 2.4 mg/L (≈ 9.79 µM)
NC1=NC(=O)/C(=C2\CCNC(=O)c3[nH]c(Br)cc32)N1 [HYMENIALDISINE] | 0.2 mg/L (≈ 0.617 µM)
